In patent US12065407B2, “Dual acting FKBP12 and FKBP52 inhibitors” (PLEX PHARMACEUTICALS, INC., priority 2017, dated 2024):
Values joined by “and” are separate entries in the source; they are usually repeats but may differ in a detail not shown here. Equal values may be shown once. Read-outs that look alike come from different tables or passages of the source.

Columns and labels:
[1] = tested on: A53T mutant α-synuclein overexpressing BE(2)-M17 cells (M3.2); test: Neuroprotection in A53T mutant α-synuclein overexpressing BE(2)-M17 cells (M3.2); assay type: cell-based, human; details: for Neuroprotection (cell viability): A53T mutant α-synuclein cells (M3.2), Alamar Blue assay
Method: (§1) BE(2)-M17 human neuroblastoma cells engineered to stably express either wild type or A53T mutant α-synuclein, PC12 rat pheochromocytoma, or SH-SY5Y human neuroblastoma cells were cultured in 96-well cell culture dishes in a humidified incubator at 37° C., 5% CO2. The growth medium was supplemented with 0.1% dimethyl sulfoxide (vehicle control) or compounds dissolved in dimethyl sulfoxide. Following 2 hours of exposure to compounds, the growth medium was further supplemented with 6-hydroxydopamine (or 0.1% ascorbic acid vehicle control) and incubated for an additional 24-48 hours.
(§2) See FIGS. 1A and 1B for neuroprotection observed in PC12 cells treated with dual acting FKBP12 and FKBP52 inhibitory exemplary compounds CAP01687 (FIG. 1A) and CAP01693 (FIG. 1B) measured using WST-8 assay. Specifically, FIGS. 1A and 1B, show relative percent protection from 6-OHDA, the vehicle control being set to 0% relative protection. […] Neuroprotection was also observed in A53T mutant α-synuclein overexpressing BE(2)-M17 cells (M3.2) treated with CAP01687 (FIG. 3B). The bars in FIGS. 3A and 3B depict relative percent fluorescence, which is proportional to cell viability, with the vehicle control being 100%.]
as §1, with “pheochromocytoma cells,” for “pheochromocytoma,”, “C. and” for “C.,”, “(OHDA) or” for “(or”, “hours. […]” for “hours.”

[2] = tested on: WT21 cells; test: Cytotoxicity to WT21 cells (MTS tetrazolium dye reduction); assay type: cell-based, human; details: concentrations under 50 μM
[3] = tested on: PC12 cells; test: Neurite outgrowth; assay type: cell-based, rat; details: light microscopy, bar graph
Method: PC12 rat pheochromocytoma or SH-SY5Y human neuroblastoma cells were grown on glass coverslips in a 24-well cell culture dish in a humidified incubator at 37° C., 5% CO2. After 24 hours, the cells were washed with phosphate buffered saline and the serum concentration of the growth medium was reduced to 0.2%. After 16 hours in the reduced serum medium, 0.1% dimethyl sulfoxide (vehicle control) or compounds dissolved in dimethyl sulfoxide were added to the growth medium. Following 2 hours of exposure to compounds, the growth medium was supplemented with 6-hydroxydopamine (or 0.1% ascorbic acid vehicle control), nerve growth factor (or phosphate-buffered saline vehicle control), in addition to 0.1% dimethyl sulfoxide (vehicle control) or compounds dissolved in dimethyl sulfoxide. […] Phase contrast images were captured at 20× magnification and the percentage of cells with neurites longer than 20 μm were scored for approximately 200 cells in each condition using ImageJ software.
PC12 rat pheochromocytoma or SH-SY5Y human neuroblastoma cells were grown on glass coverslips in a 24-well cell culture dish in a humidified incubator at 37° C. and 5% CO2. […] Phase contrast images were captured at 20× magnification and the percentage of cells with neurites longer than 20 μm were scored for approximately 200 cells in each condition using ImageJ software.

[4] = Microsomal stability (Clint assay), rat liver microsome; assay type: in vitro ADME; details: male, Sprague-Dawley, liver microsomes, pH 7.4, 1 μM compound, 0.5 mg/mL protein, 1 mM NADPH, 37° C.; for microsomal CLint at 1 μM: read-out: Clearance CL int (rat microsomes); for half-life at 1 μM: read-out: Rat microsomes T1/2
Method: (§3) Microsomal stability measurements were carried out by Clint assay. Test compounds were incubated with liver microsome, and metabolic stability was determined over 45 minutes. The experimental conditions were as follows. […]

[5] = Distribution of inhibitors in plasma and brain after intravenous dosing of mice; assay type: in vivo; details: 1 mg/kg IV; for Plasma Concentrations, mean: n = 5; for concentration at 1 h / concentration at 0.15 h / concentration at 0.5 h: male, CD1, mouse, iv, 1 mg/kg
Method: Distribution of inhibitors in plasma and brain tissue was examined after intravenous dosing of mice with inhibitors. The experimental conditions were as follows: Mice: male CD1 about 8 weeks old; body weight: about 25 g; No. of groups: one; No. of animals per group: 5; vehicle for IV dosing: DMSO; dosage: 1 mg/kg.
Plasma samples were separated by centrifugation in presence of K2-EDTA as anticoagulant. Brain tissue were homogenized in phosphate buffer saline and processed for bioanalysis as per standard practice. Samples were analyzed by a discovery grade bio-analytical method using LC-MS/MS method.

[6] = tested on: wild type α-synuclein overexpressing BE(2)-M17 cells (WT21); test: Neuroprotection in wild type α-synuclein overexpressing BE(2)-M17 cells (WT21); assay type: cell-based, human; details: Alamar Blue assay
Method: as §1
as §2, with “Cell viability was measured by reduction of WST-8 or AlamarBlue® and the relative protection from 6-hydroxydopamine was measured by calculating the percentage of viable cells normalized to 6-hydroxydopamine treated cells in the absence of compound. See” for “See”
BE(2)-M17 human neuroblastoma cells engineered to stably express either wild type or A53T mutant α-synuclein, PC12 rat pheochromocytoma cells, or SH-SY5Y human neuroblastoma cells were cultured in 96-well cell culture dishes in a humidified incubator at 37° C. and 5% CO2. The growth medium was supplemented with 0.1% dimethyl sulfoxide (vehicle control) or compounds dissolved in dimethyl sulfoxide. […]
Cell viability was measured by reduction of WST-8 or alamarBlue® and the relative protection from 6-hydroxydopamine was measured by calculating the percentage of viable cells normalized to 6-hydroxydopamine treated cells in the absence of compound.

[7] = Microsomal stability (Clint assay), human liver microsome; assay type: in vitro ADME; details: both sexes, liver microsomes, pH 7.4, 1 μM compound, 0.5 mg/mL protein, 1 mM NADPH, 37° C.; for microsomal CLint at 1 μM: read-out: Clearance CL int (human microsomes); for half-life at 1 μM: read-out: Human microsomes T1/2
Method: as §3

[8] = tested on: PC12 rat pheochromocytoma cells; test: Neuroprotection from 6-hydroxydopamine in PC12 cells (WST-8); assay type: cell-based; details: WST-8 assay, FIG. 1
Method: as §1
Cell viability was measured by reduction of WST-8 or AlamarBlue® and the relative protection from 6-hydroxydopamine was measured by calculating the percentage of viable cells normalized to 6-hydroxydopamine treated cells in the absence of compound. See FIGS. 1A and 1B for neuroprotection observed in PC12 cells treated with dual acting FKBP12 and FKBP52 inhibitory exemplary compounds CAP01687 (FIG. 1A) and CAP01693 (FIG. 1B) measured using WST-8 assay. Specifically, FIGS. 1A and 1B, show relative percent protection from 6-OHDA, the vehicle control being set to 0% relative protection. […] The bars in FIGS. 3A and 3B depict relative percent fluorescence, which is proportional to cell viability, with the vehicle control being 100%.] […]

[9] = brain, 1 h, n = 5, read-out: Brain concentrations, mean
[10] = plasma, 0.15 h, n = 5, read-out: Plasma Concentrations, mean
[11] = plasma, 0.5 h, n = 5, read-out: Plasma Concentrations, mean
[12] = plasma, 0.5 h, read-out: Plasma Concentrations, individual animals
[13] = plasma, 1 h, n = 5, read-out: Plasma Concentrations, mean
[14] = plasma, 1 h, read-out: Plasma Concentrations, individual animals

Compound: COc1ccc(/N=N/c2nc3ccccc3n2C)c2ccccc12 [CAP01324]
- Neuroprotection (relative change in absorbance, MTS) ([1]; A53T mutant cells, 100 nM, MTS tetrazolium dye): neuroprotection
- Cytotoxicity (relative change in absorbance, MTS) [2]: not cytotoxic

Compound: CCn1c(/C=C/c2ccc(Cl)cc2)nc2ccccc21 [CAP01510]
- Neurite outgrowth (percentage of cells with neurites longer than 20 μm) [3]: dose dependent promotion of neurite outgrowth

Compound: Cc1ccc(Cn2c(/C=C/c3ccc(F)cc3)nc3ccccc32)cc1 [CAP01551, 2-[2-(4-fluorophenyl)vinyl]-1-(4-methylbenzyl)-1H-benzimidazole]
- microsomal CLint at 1 μM [4]: 202 µL/min/mg
- half-life at 1 μM [4]: 6.85 min
- Plasma Concentrations, individual animals ([5]; 0.15 h): 217.36 ng/mL and 295.33 ng/mL and 122.46 ng/mL and 203.22 ng/mL and 134.60 ng/mL
- Plasma Concentrations, mean ([5]; 0.15 h): 194.59 ng/mL
- Plasma Concentrations, individual animals ([5]; 0.5 h): 88.98 ng/mL and 46.31 ng/mL and 62.88 ng/mL and 56.74 ng/mL
- Plasma Concentrations, mean ([5]; 0.5 h): 65.36 ng/mL
- Brain concentrations, individual animals ([5]; 1 h): 81.88 ng/G and 57.91 ng/G and 63.84 ng/G and 74.50 ng/G
- Plasma Concentrations, individual animals ([5]; 1 h): 52.86 ng/mL (2×) and 27.45 ng/mL (2×) and 27.24 ng/mL (2×) and 27.74 ng/mL (2×) and 33.70 ng/mL
- Plasma Concentrations, mean ([5]; 1 h): 33.80 ng/mL
- concentration at 1 h [5, 9]: 70.4 ng/g
- concentration at 1 h ([5]; brain, 1 h, read-out: Brain concentrations, individual animals): 73.8 ng/g
- concentration at 0.15 h [5, 10]: 195 ± 69.9 ng/mL
- concentration at 0.5 h [5, 11]: 65.4 ± 16.2 ng/mL
- concentration at 0.5 h [5, 12]: 71.9 ng/mL
- concentration at 1 h [5, 13]: 33.8 ± 11 ng/mL
- concentration at 1 h [5, 14]: 33.7 ng/mL
- Neuroprotection (cell viability) [6]: neuroprotection
- microsomal CLint at 1 μM [7]: 52.4 µL/min/mg
- half-life at 1 μM [7]: 26.4 min

Compound: CC(C)CCn1c(/C=C/c2ccc(F)cc2)nc2ccccc21 [CAP01559]
- Neuroprotection (cell viability) [1]: neuroprotection
- Neuroprotection (cell viability) [6]: neuroprotection

Compound: O=C(N[C@@H](Cc1ccc(Cl)cc1)C(=O)NCCCc1ccccc1)c1ccc2cc(F)ccc2c1 [CAP01687]
- Neuroprotection (cell viability) [1]: neuroprotection
- Neuroprotection (relative percent protection from 6-OHDA) [8]: neuroprotection
- Neuroprotection (cell viability) [6]: neuroprotection
- Neurite outgrowth (percentage of cells with neurites longer than 20 μm) [3]: promotion of neurite outgrowth

Compound: O=C(N[C@@H](Cc1ccc(Cl)cc1)C(=O)NCCCc1cccnc1)c1ccc2cc(F)ccc2c1 [CAP01693, (2S)-3-(4-chlorophenyl)-2-[(6-fluoronaphthalen-2-yl)-formamido]-N-[3-(pyridine-3-yl)propyl]propanamide]
- Neuroprotection (relative percent protection from 6-OHDA) [8]: neuroprotection

Compound: O=C(N[C@H](C(=O)NCCCc1ccccc1)c1ccccc1)c1ccc2cc(F)ccc2c1 [CAP01723, (2S)-2-[(6-fluoronaphthalen-2-yl)formamido]-2-phenyl-N-(3-phenylpropyl)acetamide]
- microsomal CLint at 1 μM [4]: 130 µL/min/mg
- half-life at 1 μM [4]: 10.7 min
- Plasma Concentrations, individual animals ([5]; 0.15 h): 258.2 ng/mL and 225.3 ng/mL and 225.4 ng/mL and 244.2 ng/mL
- Plasma Concentrations, mean ([5]; 0.15 h): 239.7 ng/mL
- Plasma Concentrations, individual animals ([5]; 0.5 h): 106.1 ng/mL and 97.6 ng/mL and 102.6 ng/mL and 93.2 ng/mL
- Plasma Concentrations, mean ([5]; 0.5 h): 100.5 ng/mL
- Brain concentrations, individual animals ([5]; 1 h): 17.2 ng/G and 14.6 ng/G and 31.9 ng/G and 9.5 ng/G and 22.3 ng/G
- Plasma Concentrations, individual animals ([5]; 1 h): 41.1 ng/mL (2×) and 58.7 ng/mL (2×) and 53.5 ng/mL (2×) and 45.4 ng/mL (2×) and 50.3 ng/mL
- Plasma Concentrations, mean ([5]; 1 h): 49.8 ng/mL
- concentration at 1 h [5, 9]: 19.1 ng/g
- concentration at 0.15 h [5, 10]: 240 ± 14.2 ng/mL
- concentration at 0.15 h ([5]; plasma, 0.15 h, read-out: Plasma Concentrations, individual animals): 246 ng/mL
- concentration at 0.5 h [5, 11]: 100 ± 5.1 ng/mL
- concentration at 0.5 h [5, 12]: 103 ng/mL
- concentration at 1 h [5, 13]: 49.8 ± 6.8 ng/mL
- concentration at 1 h [5, 14]: 50.3 ng/mL
- microsomal CLint at 1 μM [7]: 167 µL/min/mg
- half-life at 1 μM [7]: 8.29 min
